These results are taken from ChEMBL document CHEMBL3507680, “University of Dundee, Gates Library screen for HepG2 cell viability”.

Structures are written as SMILES.

The data set can be described thus: Human HepG2 cell viability assay in 384 well format. It is filed as toxicity, cell-based. More on the design: dose 125 nL, time 70.5 hour; concentration not given beside the values. The conditions noted are these: HepG2 cells, read-out: Inhibition.

In the case of `CCC1(CNC(=O)NC(c2nnc3n2CCC3)C(C)C)CCC1` (centres undefined), the cytotoxicity at 70.5 h was 35.2%.
Then `CNC(=O)N1CCCCC1c1nnc2n1CCCC2` (centres undefined), with -0.585%; and `O=C(CC1CN(Cc2ccccc2)CCO1)Nc1ccsc1` (centres undefined), with 8.64%.
Then `Cc1n[nH]c(C)c1CNC(=O)N1CCCC(Cc2nccn2C)C1` (centres undefined), with 0.74%.
Then `CN(C)CC1CN(c2ncnc3ccsc23)CCO1` (centres undefined), with 8.47%; and `CNc1cc(N2CCCC2CNCc2cccc(C#N)c2)ncn1` (centres undefined), with 1.28%; and `Cc1ncsc1CNc1cccc(OCCN2CCCC2)c1`, with 1.28%.
With `Cc1ccc(C2CN(C(=O)c3c(C)cc(C)[nH]c3=O)CCO2)c(C)c1` (centres undefined), the cytotoxicity at 70.5 h was 9.82%.
Then `O=C(NCCSCc1ccc(Br)s1)C1CCCN(c2cnccn2)C1` (centres undefined), with 10.7%.
For the compound `CCCc1nc(C)c(C(=O)NC2CCN(CC(N)=O)CC2)s1`, the cytotoxicity at 70.5 h was -11.5%.
Regarding `CC(NCc1ccccn1)c1cc2c(cc1Br)OCCO2` (centres undefined), the cytotoxicity at 70.5 h is -4.31%.
For `O=C(NS(=O)(=O)Cc1ccc(F)cc1)C1CCc2ccccc21` (centres undefined) the value was 3.78%.
Then `CCc1ncc2c(n1)CN(Cc1nc3c(F)cccc3[nH]1)CC2`, with -5.3%.
As to `COc1cc(CNCCNC(=O)c2ccc(O)cc2)ccc1SC`, the cytotoxicity at 70.5 h turned out to be 55.5%.
For `O=C(NCCc1ccccc1Cl)NCC1(O)CCSC1` (centres undefined) the value was 3.74%.
Consider `O=C(NCc1ccc(Cl)cc1Cl)NCC1(O)CCSC1` (centres undefined), for which the cytotoxicity at 70.5 h was found to be 18.5%.
For `CC(C)c1nnc(CNc2ccc(SC(F)(F)F)cc2)o1` the value was 36.9%.
`COc1ccnc(NC(=O)c2cnccn2)c1`: the cytotoxicity at 70.5 h is -7.62%.
Then `O=C(c1ccc(=O)[nH]n1)N1CCc2ccccc21`, with -0.117%; and `CCCc1noc(CN(C)Cc2ccc3c(c2)OCO3)n1`, with 17.8%; and `COc1c(C(=O)N2CCOC(c3cccs3)C2)c(C)nn1C` (centres undefined), with -5.91%.
For `c1cc(NCc2cscn2)cc(OCCN2CCCCC2)c1` the value was -2.11%.
Then `Cc1csc(CNc2cccc(OCCN3CCCC3)c2)n1`, with 19.9%; and `CC(NCc1cccc2c1OCCO2)c1cc2c(cc1Br)OCCO2` (centres undefined), with -7.55%.
Take `CCN(C(c1cccnc1)c1ccc(F)cc1F)S(C)(=O)=O` (centres undefined): the cytotoxicity at 70.5 h was -12.1%.
Then `CCN(Cc1nc2c(cnn2C)c(=O)[nH]1)c1cccc(C)c1C`, with -0.49%; and `CN(CCc1ccncc1)C(=O)C1CSCN1C(=O)CC(C)(C)C` (centres undefined), with -12.5%; and `CCc1nnc2n1CCN(Cc1noc(-c3cccc(C)c3)n1)C2`, with -2.11%.
Then `CCc1cnccc1C(=O)NC1CCN(C(=O)C2CCCCC2)CC1`, with -8.95%; and `CC(O)CN1CCC(CN(C)CCC(=O)NC2CCCC2)CC1` (centres undefined), with -1.49%; and `CC(c1nnc(-c2cccs2)o1)N1CCc2cncnc2C1` (centres undefined), with -1.71%.
Then `CC(C)=CCN1CCN(C(=O)C2CCS(=O)(=O)C2)CC1` (centres undefined), with 0.157%.
In the case of `O=C1COc2cc(C(=O)NCc3ccc(Cl)s3)ccc2N1`, the cytotoxicity at 70.5 h is -2.5%.
For `CS(=O)(=O)NC1CCCN(C(=O)Nc2ccccc2Cn2cccn2)C1` (centres undefined) the value was 14.4%; for `CCc1ccc(CN(C(=O)CCn2cc(S(N)(=O)=O)cn2)C2CC2)cc1`, -2.81%; for `NS(=O)(=O)c1cnn(CCC(=O)N(Cc2ccccc2)C2CC2)c1`, -7.26%.
For the compound `Cc1nn(C)c(N(C)C)c1CNC1CCCCNC1=O` (centres undefined), the cytotoxicity at 70.5 h is -4.25%.
`O=c1oc2ccccc2n1CCCN1CCCC1c1ccc(O)cc1` (centres undefined): the cytotoxicity at 70.5 h is -1.72%.
Then `CC(C)(C(N)=O)S(=O)(=O)c1ccc(Br)cc1`, with -6.61%.
For `NS(=O)(=O)c1cnn(CCC(=O)N(C2CCCCC2)C2CC2)c1` the value was -3.97%.
For `Cc1ccc(N2CCCN(C(=O)c3n[nH]c4c3CCC4)CC2)nn1` the value was 1.32%; for `O=C(Nc1ccccc1Cn1cccn1)N1CCC(N2CCCC2)C1` (centres undefined), -2.57%; for `CCOc1ccc(S(=O)(=O)C(C)C(=O)Nc2cc(C)no2)cc1` (centres undefined), -4.64%.
In the case of `Cc1cc(CNC2(c3ccccc3)CCCCC2)on1`, the cytotoxicity at 70.5 h was -0.993%.
Take `Cc1nc(O)ccc1C(=O)NCc1ncoc1C`: the cytotoxicity at 70.5 h was -2.74%.
As to `Cc1[nH]ccc1C(=O)NCc1ncoc1C`, the cytotoxicity at 70.5 h was -2.23%.
Turning to `CN(C)c1cccc(CNCc2ccc(N3CCOCC3)cc2)c1`, the cytotoxicity at 70.5 h stood at 14%.
For `CC(O)CN1CCC(CN(C)CC(=O)NC2CCOCC2)CC1` (centres undefined) the value was -2.54%; for `O=C(Nc1cccc(Cn2cccn2)c1)N1CCCC(N2CCCC2)C1` (centres undefined), -4.22%; for `Cn1cc(C2CCCN2CCCn2c(=O)oc3ccccc32)cn1` (centres undefined), 12.6%.
With `CN(Cc1cccs1)c1cc(N2CCCC2CO)ncn1` (centres undefined), the cytotoxicity at 70.5 h was -1.74%.
As for `CCN(CC)S(=O)(=O)CCNc1nnc(C(C)C)s1`, the cytotoxicity at 70.5 h came out at 6.99%.
For `CC(C)CCNc1nnc(C(C)C)s1` the value was -3.84%; for `O=S(=O)(NCCSc1nncn1C1CC1)c1ccccc1`, 30.9%.
Then `CC(C)(C)CCN1CCN(c2snc(Cl)c2C#N)CC1`, with 4.63%.
For the compound `Cc1cnn(CC(C)NCc2c(C)nn(Cc3ccccc3)c2C)c1` (centres undefined), the cytotoxicity at 70.5 h is -4.31%.
Turning to `CN(C)C(=O)Cc1ccccc1NCc1cc(C#N)ccc1F`, the cytotoxicity at 70.5 h was -2.64%.
Then `CC(C)c1nc(/C=C/c2cnn(-c3ccc(Cl)cc3)c2)ncc1C(=O)O`, with 22.7%; and `Cc1[nH]ccc1C(=O)N1CCCN1C(=O)OC(C)(C)C`, with 0.542%; and `CC(C)(NC(=O)Cc1ccccc1F)C(C)(C)C(=O)O`, with -0.854%.
Then `O=C(CCn1nnc2ccccc2c1=O)N(CC1CCOC1)C1CC1` (centres undefined), with 1.53%; and `CCn1nc(C)c(CNCCn2cc(C)cn2)c1C`, with -4.46%.
For `CCC(CC)n1ncc(C(=O)NS(=O)(=O)c2ccsc2)c1C`, the cytotoxicity at 70.5 h is 21.2%.
Then `CCCN1CCC(N2CCN(c3cc(C)nc(COC)n3)CC2)CC1`, with 3.64%; and `Cc1cc(CN(CCO)c2ccc(Br)cc2)on1`, with -0.419%.
For `CC(=O)N(Cc1noc(C)n1)C1CCN(CC(=O)N(C)C2CC2)C1` (centres undefined), the cytotoxicity at 70.5 h is -2.89%.
For `CN(CCc1ccccn1)C(=O)C(O)c1cc(Cl)cc(Cl)c1` (centres undefined) the value was 42.8%; for `Cc1cc(C)cc(OCC(=O)N2CCCC2)c1`, -21.3%; for `Cc1cc(C)cc(OCC(=O)N2CCC2)c1`, -22.1%.
For the compound `CC(Cn1cccn1)NC(=O)c1ccsc1` (centres undefined), the cytotoxicity at 70.5 h is -11.4%.
As for `CCCn1cc(NC(=O)c2cccc3cccnc23)ccc1=O`, the cytotoxicity at 70.5 h was -17.8%.
In the case of `NC(=O)CN1CCCN(C(=O)COc2cccc(F)c2)CC1`, the cytotoxicity at 70.5 h was -25.4%.
Then `c1cnn(CCNCc2cnc(N3CCOCC3)nc2)c1`, with 41.2%; and `Cc1nccn1CCCNc1ccc(Cl)c(C#N)n1`, with -24.8%; and `O=C1CCC(C(=O)Nc2ccc(=O)n(Cc3ccc(Cl)c(Cl)c3)c2)N1` (centres undefined), with -16.6%.
For `COCc1noc(-c2cc(Cl)c3c(c2)OCCCO3)n1`, the cytotoxicity at 70.5 h is -8.58%.
Turning to `COCCc1noc(-c2cc(Cl)c3c(c2)OCCCO3)n1`, the cytotoxicity at 70.5 h was -19.1%.
As for `COc1ccc2c(OCC(=O)NC(C)(C)C)ccnc2c1`, the cytotoxicity at 70.5 h was -18.7%.
Then `CS(=O)(=O)CCSCc1cc(F)cc2cccnc12`, with -16.7%; and `COCC(C)NC(=O)CN1CCCC1` (centres undefined), with -23.1%; and `CC(C)c1nsc(N2CCOCC2)n1`, with -27.4%.
In the case of `N#Cc1cccc(CS(=O)(=O)NCC(O)Cc2ccccc2)c1` (centres undefined), the cytotoxicity at 70.5 h is -0.967%.
`CCc1nc(NS(=O)(=O)c2ccc(F)cc2C)no1`: the cytotoxicity at 70.5 h is -5.01%.
Consider `CSCc1nc(C(C)(C)NC(=O)OC(C)(C)C)no1`, for which the cytotoxicity at 70.5 h was -7.03%.
For `O=S(=O)(CCNCc1cccc2c1OCCO2)N1CCOCC1` the value was 5.04%; for `CCc1nc(C(=O)NCc2ccc(N3CCNC(=O)C3)c(F)c2)c[nH]1`, 5.08%.
Turning to `CCC(CNC(=O)c1cc(OC)ccc1Br)N1CCc2ccccc2C1` (centres undefined), the cytotoxicity at 70.5 h is 7.55%.
Then `COc1ccc(CCNC(=O)NC2CCCC2)cc1OC`, with -12.5%.
Then `COCCn1cc(C(=O)N2CCCC2c2cc(C)no2)ccc1=O` (centres undefined), with -11.6%.
Consider `COc1ccc(C(CO)NC(=O)Nc2cccc(C#N)c2)cc1` (centres undefined), for which the cytotoxicity at 70.5 h is -8.65%.
Then `COc1cc(C)nc(N2CCN(C(=O)CCc3nccs3)CC2)n1`, with 9.16%.
For `COc1cc(C)nc(N2CCN(C(=O)CCc3cscn3)CC2)n1` the value was -6.3%.
For `N#Cc1cccc(NC(=O)N[C@H](CO)c2ccccc2)c1`, the cytotoxicity at 70.5 h was -10.8%.
Then `Cc1nccc(CNC(=O)NCCOc2ccc(F)c(F)c2)n1`, with -2.22%; and `CC(c1ccc(Cl)cc1)N1CCN(CCS(C)(=O)=O)CC1` (centres undefined), with -6.43%.
For the compound `N#Cc1cc(NC(=O)c2ccccc2)ccc1N1CCC(O)CC1`, the cytotoxicity at 70.5 h amounted to 1.64%.
In the case of `COc1ccccc1OCC(=O)NS(=O)(=O)c1ccccc1F`, the cytotoxicity at 70.5 h is -0.501%.
For `CC(NC1CCN(CCS(C)(=O)=O)CC1)c1ccc(Cl)cc1` (centres undefined) the value was 19.3%; for `CC(=O)c1cccc(OCCCC(=O)N(C)Cc2cccc(O)c2)c1`, -6.39%; for `O=C(CN1CCCCC1Cn1cncn1)NC1CCN(C2CC2)CC1` (centres undefined), -1.8%.
For `O=C(CN1CCCCC1Cn1cccn1)NC1CCN(C2CC2)CC1` (centres undefined) the value was -7.07%; for `O=C(CN1CCCC1Cn1cccn1)NC1CCOCC1` (centres undefined), -5.99%; for `c1coc(-c2noc(CN3CCC(c4ccn[nH]4)CC3)n2)c1`, -8.33%.
Regarding `CCCNC(c1ccc(F)cc1)c1cccnc1` (centres undefined), the cytotoxicity at 70.5 h was -19.4%.
